Converted amounts (≈) assume the structure as drawn.
Experiments:
Assay type in all cases: functional
Staphylococcus aureus [1] = assay: Antibacterial activity against methicillin-resistant Staphylococcus aureus CCARM 3506 clinical isolate after 24 hrs by broth microdilution method; conditions: CCARM 3506, 24 h
Staphylococcus aureus [2] = assay: Ratio of norfloxacin MIC to compound MIC for methicillin-resistant Staphylococcus aureus CCARM 3506 clinical isolate
Staphylococcus aureus [3] = assay: Antibacterial activity against methicillin-resistant Staphylococcus aureus CCARM 3167 clinical isolate after 24 hrs by broth microdilution method; conditions: CCARM 3167, 24 h
Staphylococcus aureus [4] = assay: Antibacterial activity against Staphylococcus aureus KCTC 209 after 24 hrs by broth microdilution method; conditions: KCTC 209, 24 h
Staphylococcus aureus [5] = assay: Ratio of norfloxacin MIC to compound MIC for quinolone-resistant Staphylococcus aureus CCARM 3519 clinical isolate
Staphylococcus aureus [6] = assay: Ratio of norfloxacin MIC to compound MIC for quinolone-resistant Staphylococcus aureus CCARM 3505 clinical isolate
Staphylococcus aureus [7] = assay: Ratio of norfloxacin MIC to compound MIC for methicillin-resistant Staphylococcus aureus CCARM 3167 clinical isolate
Escherichia coli = assay: Antibacterial activity against Escherichia coli CCARM 1356 after 24 hrs by broth microdilution method; conditions: CCARM 1356, 24 h
Staphylococcus aureus [8] = assay: Antibacterial activity against Staphylococcus aureus RN4220 after 24 hrs by broth microdilution method; conditions: RN4220, 24 h
Staphylococcus aureus [9] = assay: Antibacterial activity against quinolone-resistant Staphylococcus aureus CCARM 3519 clinical isolate after 24 hrs by broth microdilution method; conditions: CCARM 3519, 24 h
Staphylococcus aureus [10] = assay: Antibacterial activity against Staphylococcus aureus KCTC 503 after 24 hrs by broth microdilution method; conditions: KCTC 503, 24 h
Staphylococcus aureus [11] = assay: Antibacterial activity against quinolone-resistant Staphylococcus aureus CCARM 3505 clinical isolate after 24 hrs by broth microdilution method; conditions: CCARM 3505, 24 h

Row | SMILES | MIC (Staphylococcus aureus [1]) [µg/mL] | Ratio (Staphylococcus aureus [2]) | MIC (Staphylococcus aureus [3]) [µg/mL] | MIC (Staphylococcus aureus [4]) [µg/mL] | Ratio (Staphylococcus aureus [5]) | Ratio (Staphylococcus aureus [6]) | Ratio (Staphylococcus aureus [7]) | MIC (Escherichia coli) [µg/mL] | MIC (Staphylococcus aureus [8]) [µg/mL] | MIC (Staphylococcus aureus [9]) [µg/mL] | MIC (Staphylococcus aureus [10]) [µg/mL] | MIC (Staphylococcus aureus [11]) [µg/mL]
1 | O=C(/C=C/c1ccc(/C=C2\SC(=S)N([C@@H](Cc3ccccc3)C(=O)O)C2=O)cc1)c1ccc2ccccc2c1 | 4 (≈ 7.28 µM) | 2 | 2 (≈ 3.64 µM) | 8 (≈ 14.6 µM) | 2 | 2 | 2 | > 64 | 2 (≈ 3.64 µM) | 2 (≈ 3.64 µM) | 8 (≈ 14.6 µM) | 2 (≈ 3.64 µM)
2 | O=C(/C=C/c1ccc(/C=C2\SC(=S)N([C@@H](Cc3ccccc3)C(=O)O)C2=O)cc1)c1ccccc1 | 4 (≈ 8.01 µM) | 2 | 4 (≈ 8.01 µM) | 16 (≈ 32 µM) | 2 | 2 | 2 | > 64 | 4 (≈ 8.01 µM) | 4 (≈ 8.01 µM) | 8 (≈ 16 µM) | 8 (≈ 16 µM)
3 | O=C(O)[C@H](Cc1ccccc1)N1C(=O)/C(=C\c2ccc(OCc3cccc(Br)c3)cc2)SC1=S | 4 (≈ 7.21 µM) | 2 | 4 (≈ 7.21 µM) | 4 (≈ 7.21 µM) | 2 | 2 | 2 | > 64 | 2 (≈ 3.61 µM) | 8 (≈ 14.4 µM) | 4 (≈ 7.21 µM) | 4 (≈ 7.21 µM)
4 | O=C(O)[C@H](Cc1ccccc1)N1C(=O)/C(=C\c2ccc(OCc3ccc(Cl)cc3Cl)cc2)SC1=S | 16 (≈ 29.4 µM) | 2 | 8 (≈ 14.7 µM) | 8 (≈ 14.7 µM) | 2 | 2 | 2 | > 64 | 2 (≈ 3.67 µM) | 8 (≈ 14.7 µM) | 8 (≈ 14.7 µM) | 8 (≈ 14.7 µM)
5 | O=Cc1ccc(/C=C/C(=O)c2ccc(F)cc2)cc1 | > 64 | – | > 64 | > 64 | – | – | – | > 64 | > 64 | > 64 | > 64 | > 64
6 | O=C1NC(=S)NC(=O)C1=Cc1ccc(/C=C/C(=O)c2ccccc2F)cc1 | > 64 | – | > 64 | > 64 | – | – | – | > 64 | > 64 | > 64 | > 64 | > 64
7 | Cc1ccc(COc2ccc(C=O)cc2)cc1 | > 64 | – | > 64 | > 64 | – | – | – | > 64 | > 64 | > 64 | > 64 | > 64
8 | O=Cc1ccc(/C=C/C(=O)c2ccc(Br)cc2)cc1 | > 64 | – | > 64 | > 64 | – | – | – | > 64 | > 64 | > 64 | > 64 | > 64
9 | O=Cc1ccc(OCc2ccc(F)cc2)cc1 | > 64 | – | > 64 | > 64 | – | – | – | > 64 | > 64 | > 64 | > 64 | > 64
10 | O=Cc1ccc(/C=C/C(=O)c2ccc(Cl)cc2)cc1 | > 64 | – | > 64 | > 64 | – | – | – | > 64 | > 64 | > 64 | > 64 | > 64
11 | O=Cc1ccc(/C=C/C(=O)c2ccccc2)cc1 | > 64 | – | > 64 | > 64 | – | – | – | > 64 | > 64 | > 64 | > 64 | > 64
12 | O=Cc1ccc(OCc2ccc(Cl)cc2)cc1 | > 64 | – | > 64 | > 64 | – | – | – | > 64 | > 64 | > 64 | > 64 | > 64
13 | Cc1ccc(C(=O)/C=C/c2ccc(C=O)cc2)c(C)c1 | > 64 | – | > 64 | > 64 | – | – | – | > 64 | > 64 | > 64 | > 64 | > 64
14 | O=C1NC(=S)NC(=O)C1=Cc1ccc(/C=C/C(=O)c2ccc(Cl)cc2)cc1 | > 64 | – | > 64 | > 64 | – | – | – | > 64 | > 64 | > 64 | > 64 | > 64
15 | O=C1NC(=S)S/C1=C/c1ccc(/C=C/C(=O)c2ccccc2F)cc1 | > 64 | – | > 64 | > 64 | – | – | – | > 64 | > 64 | > 64 | > 64 | > 64
16 | COc1ccc(C(=O)/C=C/c2ccc(C=O)cc2)cc1 | > 64 | – | > 64 | > 64 | – | – | – | > 64 | > 64 | > 64 | > 64 | > 64
17 | O=C1NC(=S)S/C1=C/c1ccc(/C=C/C(=O)c2ccc(Cl)cc2)cc1 | > 64 | – | > 64 | > 64 | – | – | – | > 64 | > 64 | > 64 | > 64 | > 64
18 | CC(=O)Nc1ccc(C(=O)/C=C/c2ccc(C=O)cc2)cc1 | > 64 | – | > 64 | > 64 | – | – | – | > 64 | > 64 | > 64 | > 64 | > 64
19 | O=Cc1ccc(OCc2ccc(Cl)cc2Cl)cc1 | > 64 | – | > 64 | > 64 | – | – | – | > 64 | > 64 | > 64 | > 64 | > 64
20 | COc1cccc(C(=O)/C=C/c2ccc(C=O)cc2)c1 | > 64 | – | > 64 | > 64 | – | – | – | > 64 | > 64 | > 64 | > 64 | > 64
21 | O=C1NC(=S)S/C1=C/c1ccc(/C=C/C(=O)c2ccc(F)cc2)cc1 | > 64 | – | > 64 | > 64 | – | – | – | > 64 | > 64 | > 64 | > 64 | > 64
22 | CCn1cc(C(=O)O)c(=O)c2cc(F)c(N3CCNCC3)cc21 [NORFLOXACIN] | 4 (≈ 12.5 µM) | – | 8 (≈ 25.1 µM) | 4 (≈ 12.5 µM) | – | – | – | 16 (≈ 50.1 µM) | 2 (≈ 6.26 µM) | > 64 | 2 (≈ 6.26 µM) | > 64
23 | O=Cc1ccc(/C=C/C(=O)c2ccccc2F)cc1 | > 64 | – | > 64 | > 64 | – | – | – | > 64 | > 64 | > 64 | > 64 | > 64
24 | O=Cc1ccc(OCc2ccccc2Cl)cc1 | > 64 | – | > 64 | > 64 | – | – | – | > 64 | > 64 | > 64 | > 64 | > 64
25 | O=C1NC(=S)S/C1=C/c1ccc(/C=C/C(=O)c2ccccc2Cl)cc1 | > 64 | – | > 64 | > 64 | – | – | – | > 64 | > 64 | > 64 | > 64 | > 64
26 | O=Cc1ccc(OCc2cccc(Br)c2)cc1 | > 64 | – | > 64 | > 64 | – | – | – | > 64 | > 64 | > 64 | > 64 | > 64
27 | O=Cc1ccc(/C=C/C(=O)c2ccc3ccccc3c2)cc1 | > 64 | – | > 64 | > 64 | – | – | – | > 64 | > 64 | > 64 | > 64 | > 64
